Results reported in patent publication US7994185B2, “Benzene sulfonamide thiazole and oxazole compounds” (Glaxo Smith Kline LLC, priority 2008, dated 2011).
Read-outs that look alike come from different tables or passages of the source.

How the values were obtained:
[1] = system: Human melanoma cancer cells (SK-MEL-28); assay: Cell growth inhibition assay (CellTiter-Glo), SK-MEL-28; type: cell-based
[2] = target: T1, BRAFV600E full-length (amino acids 2-766) (Homo sapiens, UniProt P15056, V600E); assay: B-Raf Accelerated MEK ATPase assay (BRAMA); type: biochemical
T1 construct: His6-tagged BRAFV600E full-length (amino acids 2-766); His6; made in house; host or cells: baculovirus expression system (insect cells)
Summary of the method: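 Coupled-enzyme readout: ADP generated by MEK-mediated ATP hydrolysis, uncoupled from ERK phosphorylation, is linked to NADH oxidation through pyruvate kinase and lactate dehydrogenase.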

[3] = system: Human colon tumor cells (Colo205); assay: Cell growth inhibition assay (CellTiter-Glo), Colo205; type: cell-based
Summary of the method: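 Read-out was CellTiter-Glo luminescence (total ATP as a cell-number surrogate), expressed as % inhibition against DMSO vehicle wells. Before that, cells grown in RPMI/10% FBS were treated for 3 days at 37 °C with ten 1:3-spaced compound concentrations, final DMSO 0.2%.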

[4] = SK-MEL-28, 72 h, Table 3a, 3 days incubation, read-out: Activity in SK-MEL-28 Tumor Cells
[5] = SK-MEL-28, Table 3b, later runs, average for the one or more runs, categorized, read-out: IC50 for SK-MEL-28
[6] = B-Raf Activity, Table 1a, highest pIC50 for the one or more runs, categorized
[7] = B-Raf pIC50, Table 1b, later runs, average pIC50 for the one or more runs, categorized
[8] = COLO 205, 72 h, Table 2a, 3 days incubation, read-out: Activity in Colo205 Tumor Cells
[9] = COLO 205, Table 2b, later runs, average for the one or more runs, categorized, read-out: IC50 for Colo205
[10] = Table 1b, later runs, average pIC50 for the one or more runs, categorized, read-out: B-Raf pIC50 (converted)

T1 sequence (P15056 2-766 V600E): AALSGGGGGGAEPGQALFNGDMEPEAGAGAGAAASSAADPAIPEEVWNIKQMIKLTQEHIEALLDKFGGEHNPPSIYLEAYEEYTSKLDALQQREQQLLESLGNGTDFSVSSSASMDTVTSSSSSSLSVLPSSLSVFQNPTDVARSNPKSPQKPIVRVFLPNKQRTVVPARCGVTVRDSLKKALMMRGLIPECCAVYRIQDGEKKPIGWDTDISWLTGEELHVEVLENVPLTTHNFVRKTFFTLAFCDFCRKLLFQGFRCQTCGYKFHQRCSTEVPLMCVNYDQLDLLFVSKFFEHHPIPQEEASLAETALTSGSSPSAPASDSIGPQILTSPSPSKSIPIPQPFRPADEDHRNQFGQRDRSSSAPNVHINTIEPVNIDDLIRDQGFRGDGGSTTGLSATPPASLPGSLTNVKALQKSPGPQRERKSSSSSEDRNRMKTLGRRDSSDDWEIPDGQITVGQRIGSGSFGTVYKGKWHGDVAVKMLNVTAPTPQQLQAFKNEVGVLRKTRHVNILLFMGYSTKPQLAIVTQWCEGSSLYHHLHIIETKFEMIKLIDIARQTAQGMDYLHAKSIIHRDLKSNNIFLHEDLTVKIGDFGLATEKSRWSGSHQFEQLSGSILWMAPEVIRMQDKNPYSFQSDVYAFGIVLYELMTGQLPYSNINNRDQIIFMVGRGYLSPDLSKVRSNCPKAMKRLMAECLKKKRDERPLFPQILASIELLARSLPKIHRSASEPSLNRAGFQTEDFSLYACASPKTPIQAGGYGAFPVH

| SMILES | IC50 [1, 4] [nM] | IC50 [1, 5] [nM] | IC50 [2, 6] [nM] | IC50 [2, 7] [nM] | IC50 [3, 8] [nM] | IC50 [3, 9] [nM] | IC50 [2] [nM] | IC50 [2, 10] [nM] |
| --- | --- | --- | --- | --- | --- | --- | --- | --- |
| COc1ccc(F)cc1S(=O)(=O)Nc1cccc(-c2nc(C(C)C)sc2-c2ccnc(NC3CCN(S(C)(=O)=O)CC3)n2)c1 [Example 150] | 100 to 1000 | 100 to 1000 | 100 to 1000 | 31.6 to 1000 | 100 to 1000 | 100 to 1000 | – | – |
| CC(C)(C)c1nc(-c2cccc(NS(=O)(=O)c3ccco3)c2Cl)c(-c2ccnc(N)n2)s1 [Example 259, N-{3-[5-(2-amino-4-pyrimidinyl)-2-(1,1-dimethylethyl)-1,3-thiazol-4-yl]-2-chlorophenyl}-2-furansulfonamide] | – | < 100 | – | ≤ 3.16 | – | < 100 | – | – |
| CC(C)c1nc(-c2ccc(F)c(NS(=O)(=O)c3c(F)cccc3F)c2)c(-c2ccnc(NCCN3CCCC3)n2)s1 [Example 164] | > 1000 | 1000 to 10000 | – | – | > 1000 | 1000 to 10000 | > 1000 | – |
| Nc1nccc(-c2sc(N3CCOCC3)nc2-c2cccc(NS(=O)(=O)C3CC3)c2F)n1 [Example 51, N-{3-[5-(2-Amino-4-pyrimidinyl)-2-(4-morpholinyl)-1,3-thiazol-4-yl]-2-fluorophenyl}cyclopropanesulfonamide] | > 1000 | 1000 to 10000 | – | – | > 1000 | 1000 to 10000 | > 1000 | – |
| CC(C)(C)c1nc(-c2c(F)ccc(NS(=O)(=O)c3c(F)cccc3F)c2F)c(-c2ccnc(N)n2)s1 [Example 107, N-{3-[5-(2-amino-4-pyrimidinyl)-2-(1,1-dimethylethyl)-1,3-thiazol-4-yl]-2,4-difluorophenyl}-2,6-difluorobenzenesulfonamide] | < 100 | < 100 | < 100 | ≤ 3.16 | < 100 | < 100 | – | – |
| Cc1ccc(F)c(S(=O)(=O)Nc2cccc(-c3nc(C(C)(C)C)sc3-c3ccnc(N)n3)c2F)c1 [Example 145] | 100 to 1000 | 100 to 1000 | < 100 | 31.6 to 1000 | 100 to 1000 | 100 to 1000 | – | – |
| CC(C)CNc1nccc(-c2sc(N3CCOCC3)nc2-c2cccc(NS(=O)(=O)c3cc(F)ccc3F)c2F)n1 [Example 182] | < 100 | < 100 | < 100 | ≤ 3.16 | < 100 | < 100 | – | – |
| CS(=O)(=O)CCNc1nccc(-c2sc(N3CCOCC3)nc2-c2cccc(NS(=O)(=O)c3c(F)cccc3F)c2F)n1 [Example 14, 2,6-Difluoro-N-{2-fluoro-3-[5-(2-{[2-(methylsulfonyl)ethyl]amino}-4-pyrimidinyl)-2-(4-morpholinyl)-1,3-thiazol-4-yl]phenyl}benzenesulfonamide] | < 100 | < 100 | < 100 | ≤ 3.16 | < 100 | < 100 | – | – |
| CC(C)c1nc(-c2ccc(F)c(NS(=O)(=O)c3ccco3)c2)c(-c2ccnc(NC3CCN(S(C)(=O)=O)CC3)n2)s1 [Example 151] | 100 to 1000 | 100 to 1000 | < 100 | – | 100 to 1000 | 100 to 1000 | – | 3.16 to 31.6 |
| CNc1nccc(-c2sc(C(C)C)nc2-c2cccc(NS(=O)(=O)c3cccc(F)c3)c2)n1 [Example 86, 3-Fluoro-N-{3-[5-[2-(methylamino)-4-pyrimidinyl]-2-(1-methylethyl)-1,3-thiazol-4-yl]phenyl}benzenesulfonamide] | > 1000 | 1000 to 10000 | < 100 | 31.6 to 1000 | > 1000 | 1000 to 10000 | – | – |
| Nc1nccc(-c2sc(N3CCOCC3)nc2-c2cccc(NS(=O)(=O)c3cc(F)ccc3F)c2F)n1 [Example 56, N-{3-[5-(2-Amino-4-pyrimidinyl)-2-(4-morpholinyl)-1,3-thiazol-4-yl]-2-fluorophenyl}-2,5-difluorobenzenesulfonamide] | < 100 | < 100 | < 100 | ≤ 3.16 | < 100 | < 100 | – | – |
| O=S(=O)(Nc1cccc(-c2nc(C3CCOCC3)sc2-c2ccncn2)c1F)c1cc(F)ccc1F [Example 244, 2,5-difluoro-N-{2-fluoro-3-[5-(4-pyrimidinyl)-2-(tetrahydro-2H-pyran-4-yl)-1,3-thiazol-4-yl]phenyl}benzenesulfonamide] | – | < 100 | – | ≤ 3.16 | – | < 100 | – | – |
| CC(C)c1nc(-c2ccc(F)c(NS(=O)(=O)c3cc(F)ccc3F)c2)c(-c2ccnc(N[C@H]3CCCN(C(=O)OC(C)(C)C)C3)n2)s1 [Example 133] | > 1000 | 1000 to 10000 | 100 to 1000 | 31.6 to 1000 | > 1000 | 1000 to 10000 | – | – |
| CC(C)(C)c1nc(-c2cccc(NS(=O)(=O)c3ccccc3F)c2F)c(-c2ccnc(N)n2)s1 [Example 54, N-{3-[5-(2-Amino-4-pyrimidinyl)-2-(1,1-dimethylethyl)-1,3-thiazol-4-yl]-2-fluorophenyl}-2-fluorobenzenesulfonamide] | < 100 | < 100 | < 100 | ≤ 3.16 | < 100 | < 100 | – | – |
| COc1c(NS(=O)(=O)c2c(F)cccc2F)cccc1-c1nc(C(C)C)sc1-c1ccnc(NCC(C)C)n1 [Example 44, 2,6-Difluoro-N-[3-(2-(1-methylethyl)-5-{2-[(2-methylpropyl)amino]-4-pyrimidinyl}-1,3-thiazol-4-yl)-2-(methyloxy)phenyl]benzenesulfonamide] | > 1000 | 1000 to 10000 | < 100 | – | > 1000 | 1000 to 10000 | – | 3.16 to 31.6 |
| COc1ccc(F)cc1S(=O)(=O)Nc1cccc(-c2nc(C(C)C)sc2-c2ccnc(NC3CCN(S(C)(=O)=O)CC3)n2)c1F [Example 153] | < 100 | < 100 | < 100 | – | < 100 | < 100 | – | 3.16 to 31.6 |
| CC(C)(C)c1nc(-c2cccc(NS(=O)(=O)c3cccc(F)c3)c2F)c(-c2ccncn2)s1 [Example 223, N-{3-[2-(1′-dimethylethyl)-5-(4-pyrimidinyl)-1,3-thiazol-4-yl]-2-fluorophenyl}-3-fluorobenzenesulfonamide] | – | < 100 | – | ≤ 3.16 | – | < 100 | – | – |
| CS(=O)(=O)CCNc1nccc(-c2sc(N3CCOCC3)nc2-c2ccc(F)c(NS(=O)(=O)c3c(F)cccc3F)c2)n1 [Example 202] | 100 to 1000 | 100 to 1000 | < 100 | 31.6 to 1000 | > 1000 | 1000 to 10000 | – | – |
| CC(C)c1nc(-c2cccc(NS(=O)(=O)c3c(F)cccc3F)c2F)c(-c2ccnc(N)n2)s1 [Example 60, N-{3-[5-(2-Amino-4-pyrimidinyl)-2-(1-methylethyl)-1,3-thiazol-4-yl]-2-fluorophenyl}-2,6-difluorobenzenesulfonamide] | < 100 | < 100 | < 100 | ≤ 3.16 | < 100 | < 100 | – | – |
| CC(C)Nc1nccc(-c2sc(N3CCOCC3)nc2-c2cccc(NS(=O)(=O)c3cc(F)ccc3F)c2F)n1 [Example 83, 2,5-Difluoro-N-{2-fluoro-3-[5-{2-[(1-methylethyl)amino]-4-pyrimidinyl}-2-(4-morpholinyl)-1,3-thiazol-4-yl]phenyl}benzenesulfonamide] | < 100 | < 100 | < 100 | ≤ 3.16 | < 100 | < 100 | – | – |
| Cc1nccc(-c2sc(C(C)(C)C)nc2-c2cccc(NS(=O)(=O)c3cccc(F)c3)c2F)n1 [Example 222, N-{3-[2-(1,1-dimethylethyl)-5-(2-methyl-4-pyrimidinyl)-1,3-thiazol-4-yl]-2-fluorophenyl}-3-fluorobenzenesulfonamide] | – | < 100 | – | – | – | < 100 | – | 3.16 to 31.6 |
| CC(C)CNc1nccc(-c2sc(C(C)C)nc2-c2cccc(NS(=O)(=O)c3cccnc3)c2)n1 [Example 155] | 100 to 1000 | 100 to 1000 | < 100 | ≤ 3.16 | 100 to 1000 | 100 to 1000 | – | – |
| COc1ccc(F)cc1S(=O)(=O)Nc1cccc(-c2nc(C(C)C)sc2-c2ccnc(NCC(C)C)n2)c1 [Example 38, 5-Fluoro-N-[3-(2-(1-methylethyl)-5-{2-[(2-methylpropyl)amino]-4-pyrimidinyl}-1,3-thiazol-4-yl)phenyl]-2-(methyloxy)benzenesulfonamide] | > 1000 | 1000 to 10000 | 100 to 1000 | 31.6 to 1000 | > 1000 | 1000 to 10000 | – | – |
| CC(C)c1nc(-c2cccc(NS(=O)(=O)c3cc(F)ccc3F)c2F)c(-c2ccnc(NCCN3CCCC3=O)n2)s1 [Example 190] | < 100 | < 100 | < 100 | ≤ 3.16 | < 100 | < 100 | – | – |
| Nc1nccc(-c2sc(C3CCOCC3)nc2-c2cccc(NS(=O)(=O)c3cc(F)ccc3F)c2F)n1 [Example 245, N-{3-[5-(2-amino-4-pyrimidinyl)-2-(tetrahydro-2H-pyran-4-yl)-1,3-thiazol-4-yl]-2-fluorophenyl}-2,5-difluorobenzenesulfonamide] | – | < 100 | – | ≤ 3.16 | – | < 100 | – | – |
